Test results published in patent US5324722A, “2-, 3-, 5-, 8-, 10- and/or 11-substituted dibenzoxazepine compounds, pharmaceutical compositions and methods for treating pain” (G. D. Searle & Co., priority 1993, dated 1994).

Assays:
mice = assay: Writhing Assay (PBQ-induced writhing); type: in vivo; settings: for WRITHING ASSAY Number Out of Ten I.G. / WRITHING ASSAY Number Out of Ten S.C.: number of mice out of ten with analgesia, 30 minutes before PBQ i.p., male albino mice; for WRITHING ASSAY Number Out of Ten I.G.: 30 mg per kilogram intragastric; for WRITHING ASSAY Number Out of Ten S.C.: 30 mg per kilogram subcutaneous
From the text: The Writhing Assay is one of the most widely-used experimental procedures for measuring the analgesic activity of different narcotic and nonnarcotic analgesic agents, and involves the continuous, chemically-induced pain of visceral origin to an animal, such as a mouse orrat. [Gyires et al., Arch. int. Pharmacodyn, 267, 131-140 (1984); C. Vander Wende et al., Fed. Proc., 15, 494 (1956); Koster et al., Fed. Proc., 18, 412 (1959); and Witken et al., J. Pharmacol. exp. Ther., 133, 400-408 (1961).] Chemicals which may be used to induce this pain include phenylbenzoquinone (PBQ) and acetic acid. As a result of the chemical irritation to the animal, a characteristic stretching and writhing of the animal (dorsiflexion of the animal's back, extension of its hindlimbs and the strong contraction of its abdominal musculature) will generally occur. […] Drugs which reduce the number of writhes of the animal appear to restore the normal nociceptive threshold of the animal.
Charles River male albino mice, weighing 20 to 30 grams were used in this assay.
Thirty minutes after subcutaneous or intragastric administration to ten mice of 30 mg per kilogram of body weight of a compound of the present invention ("test compound"), […] per 10 g of body weight of a 0.025% w/v solution of PBQ was injected intraperitoneally into each mouse. Ten mice which were given saline in place of a test compound of the invention were used as a control group.
Five minutes later, each mouse was individually placed into a glass beaker for observation, and the number of writhes occurring during the following ten-minute period was counted.
A test compound was considered to have produced analgesia in a mouse if, in accordance with the conditions set forth above, and under the test criteria employed for this assay, after the administration of 30 mg per kilogram of body weight of a compound of the present invention to the mouse, the number of writhes elicited by a mouse injected with PBQ was equal to, or less than, one-half the median number of writhes recorded for the saline-treated control group of mice that day, as described by Taber in "Predictive Value of Analgesic Assays in Mice and Rats," Advances in BiochemicaI Psychopharmacology, 8, 191 (1974).
The results for the particular compounds of the present invention analyzed in this assay, and discussed in the examples identified below which correspond thereto, are presented in Table 1 hereinbelow under the heading "WRITHING ASSAY." The numbers in fractions indicate the number of mice out of ten in which a test compound produced analgesia. […] (b) Prostaglandin (PGE) Antagonism Assay

[1] = molecular target: T1, prostaglandin E2-induced contractions of segments of guinea pig ileum (Cavia porcellus, UniProt A0A286XHJ6); assay: Prostaglandin (PGE) Antagonism Assay in guinea pig ileum; type: cell-based; settings: pA2 against prostaglandin E2-induced contractions; initial concentration 3 micromolar; estimated or by Schild plot
T1 construct: Segments of ileum about 2 cm long were then cut and mounted in a 10 mL tissue bath; from tissue; host or cells: guinea pig ileum segments
T1 sequence (A0A286XHJ6 1-405): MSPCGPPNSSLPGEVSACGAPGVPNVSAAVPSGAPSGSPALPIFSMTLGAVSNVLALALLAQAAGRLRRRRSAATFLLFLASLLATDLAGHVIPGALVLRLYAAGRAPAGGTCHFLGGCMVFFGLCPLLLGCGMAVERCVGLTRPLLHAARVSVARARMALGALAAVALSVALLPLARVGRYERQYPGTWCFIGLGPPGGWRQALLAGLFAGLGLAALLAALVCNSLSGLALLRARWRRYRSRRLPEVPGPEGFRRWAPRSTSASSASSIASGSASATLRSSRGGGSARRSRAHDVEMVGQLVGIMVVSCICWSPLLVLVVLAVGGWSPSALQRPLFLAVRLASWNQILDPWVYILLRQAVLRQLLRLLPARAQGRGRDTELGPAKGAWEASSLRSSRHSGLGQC
Description: In order to determine the effectiveness of several of the compounds of the present invention ("test compounds") as prostaglandin E2 antagonists,a prostaglandin antagonism assay was conducted, as described below, to determine the ability of these compounds to inhibit prostaglandin E2 -induced contractions of segments of guinea pig ileum.
Male albino guinea pigs weighing 200 to 500 grams were sacrificed by cervical dislocation. The ilea were then quickly removed from the guinea pigs and placed in a modified Tyrode solution, a solution which is known to those skilled in the art, containing one-half of the usual amount of magnesium ions.
Segments of ileum about 2 cm long were then cut and mounted in a 10 mL tissue bath containing the modified Tyrode solution. The solution was maintained at 37° C. and aerated with a gaseous mixture of 95% oxygen and 5% carbon dioxide. Data for a control prostaglandin E2 dose response curve plotting concentration of prostaglandin E2 versus the intensity of contractions, detected isotonically, was then obtained by experimentally adjusting the dose of the prostaglandin E2 being injected into the tissue bath, in a manner known by those of skill in the art.
Solutions or suspensions containing an initial concentration (3 micromolar) of a test compound in modified Tyrode solution ("test solutions/suspensions") were then separately substituted for the control bath solution. Each test solution/suspension was then kept in constant contact with the ileum tissue, except for brief periods to drain the bath in preparation for rinsing with fresh test solution/suspension. A second prostaglandin E2 dose response curve was then generated for prostaglandin E2 in the presence of a test compound.
A dose ratio of EC50 doses was then calculated from the results of each test in a manner known by those of skill in the art. A test compound was determined to be "active" if the initial concentration used yielded at least a two-fold shift (dose ratio greater than or equal to 2) in the dose response curve for 10 prostaglandin E2.

PGE ANTAGONISM IN GUINEA PIG ILEUM (pA2 value) [1] | Kb [1] [nM] | SMILES | relative analgesic potency in the Writhing Assay (mice; among the compounds of the invention tested, 30 mg per kilogram, mice) | WRITHING ASSAY Number Out of Ten I.G. (mice) | WRITHING ASSAY Number Out of Ten S.C. (mice)
 |  | CCS(=O)(=O)CCC(=O)NNC(=O)C1c2ccccc2Oc2ccc(Cl)cc2N1C(=O)OC(C)(C)C (stereo not drawn) [Example 7, 8-chlorodibenz[b,f][1,4]oxazepine-10,11(11H)-dicarboxylic acid, 10-(1,1-dimethylethyl) ester, 11-[2-[3-(ethylsulfonyl)-1-oxopropyl]hydrazide]] | most potent | 5/10 | 3/10
6.03 |  | CCS(=O)(=O)CCC(=O)NNC(=O)N1c2cc(Cl)ccc2Oc2ccccc2C1C (stereo not drawn) [Example 13, 8-chloro-11-methyldibenz[b,f][1,4]oxazepine-10(11H)-carboxylic acid, 2-[3-(ethylsulfonyl)-1-oxopropyl]hydrazide] |  | 5/10 | 5/10
 | 1290 | CCC1c2ccccc2Oc2ccc(Cl)cc2N1C(=O)NNC(=O)CCS(=O)(=O)CC (stereo not drawn) [Example 17, 8-chloro-11-ethyldibenz[b,f][1,4]oxazepine-10(11H)-carboxylic acid, 2-[3-(ethylsulfonyl)-1-oxopropyl]hydrazide] |  | 1/10 | 2/10
5.94 |  | CCCC1c2ccccc2Oc2ccc(Cl)cc2N1C(=O)NNC(=O)CCS(=O)(=O)CC (stereo not drawn) [Example 21, 8-chloro-11-propyldibenz[b,f][1,4]oxazepine-10(11H)-carboxylic acid. 2-[3-(ethylsulfonyl)-1-oxopropyl]hydrazide] |  | 3/10 | 1/10
